This passage reports mutagenic call results from PubChem BioAssay AID1259407 (Chemical Carcinogenesis Research Information System (CCRIS), 2018).

Active and inactive are the calls of the source. How the calls were made is not given here.

This series has as its system CCRIS mutagenicity, Ames/micronucleus/aberration tests. Kind of series: CCRIS mutagenicity studies.
[1] abbreviates: Test System: AMES SALMONELLA TYPHIMURIUM, Strain/Indicator: TA98, Metabolic Activation: NONE, Method: PREINCUBATION
Where [2] appears, read: Test System: AMES SALMONELLA TYPHIMURIUM, Strain/Indicator: TA100, Metabolic Activation: NONE, Method: PREINCUBATION
Setting [3] is: Test System: AMES SALMONELLA TYPHIMURIUM, Strain/Indicator: TA100, Metabolic Activation: NONE, Method: STANDARD PLATE.

For the compound `Cc1ccccc1C(N)=O`, the mutagenic call (Test System: AMES SALMONELLA TYPHIMURIUM, Strain/Indicator: TA97, Metabolic Activation: HAMSTER, LIVER, S-9, AROCLOR 1254 (10 OR 30%), Method: PREINCUBATION) was “inactive; negative”; the mutagenic call (Test System: AMES SALMONELLA TYPHIMURIUM, Strain/Indicator: TA97, Metabolic Activation: NONE, Method: PREINCUBATION) is “inactive; negative”; the mutagenic call (Test System: AMES SALMONELLA TYPHIMURIUM, Strain/Indicator: TA97, Metabolic Activation: RAT, LIVER, S-9, AROCLOR 1254 (10 OR 30%), Method: PREINCUBATION) was “inactive; negative”; the mutagenic call (Test System: AMES SALMONELLA TYPHIMURIUM, Strain/Indicator: TA98, Metabolic Activation: HAMSTER, LIVER, S-9, AROCLOR 1254 (10 OR 30%), Method: PREINCUBATION) was “inactive; negative”; the mutagenic call under setting [1] is “inactive; negative”; the mutagenic call (Test System: AMES SALMONELLA TYPHIMURIUM, Strain/Indicator: TA98, Metabolic Activation: RAT, LIVER, S-9, AROCLOR 1254 (10 OR 30%), Method: PREINCUBATION) is “inactive; negative”. Moreover, the mutagenic call is “inactive; negative” (Test System: AMES SALMONELLA TYPHIMURIUM, Strain/Indicator: TA100, Metabolic Activation: HAMSTER, LIVER, S-9, AROCLOR 1254 (10 OR 30%), Method: PREINCUBATION); “inactive; negative” under setting [2]; “inactive; negative” (Test System: AMES SALMONELLA TYPHIMURIUM, Strain/Indicator: TA100, Metabolic Activation: RAT, LIVER, S-9, AROCLOR 1254 (10 OR 30%), Method: PREINCUBATION); “inactive; negative” (Test System: AMES SALMONELLA TYPHIMURIUM, Strain/Indicator: TA1535, Metabolic Activation: HAMSTER, LIVER, S-9, AROCLOR 1254 (10 OR 30%), Method: PREINCUBATION); “inactive; negative” (Test System: AMES SALMONELLA TYPHIMURIUM, Strain/Indicator: TA1535, Metabolic Activation: NONE, Method: PREINCUBATION); “inactive; negative” (Test System: AMES SALMONELLA TYPHIMURIUM, Strain/Indicator: TA1535, Metabolic Activation: RAT, LIVER, S-9, AROCLOR 1254 (10 OR 30%), Method: PREINCUBATION).
As for `O=[Se](O)O`, the mutagenic call was “selenite reduced number of chromosomal aberrations induced by mmc” (End Point: IN VIVO CHROMOSOMAL ABERRATIONS, Test System: TESTICULAR CELLS, Species: MOUSE, Strain/Sex: KUNMING/MALE, Route: DIET); “selenite reduced micronuclei induced by cyclophosphamide” (End Point: IN VIVO MICRONUCLEUS, Test System: BONE MARROW CELLS, POLYCHROMATIC ERYTHROCYTES, Species: MOUSE, Strain/Sex: KUNMING/FEMALE, Route: DIET); “active; positive” (Test System: AMES SALMONELLA TYPHIMURIUM, Strain/Indicator: TA1535, Metabolic Activation: NONE, Method: STANDARD PLATE); “active; positive” (Test System: CHINESE HAMSTER OVARY, Strain/Indicator: CHO-K1-BH4 (HGPRT)/6-THIOGUANINE, Metabolic Activation: NONE); “inactive; negative” (Test System: E. COLI, Strain/Indicator: WP2 UVRA, Metabolic Activation: NONE, Method: SPOT TEST); “active; positive. reevaluation of results: positive” (Test System: MOUSE LYMPHOMA, Strain/Indicator: L5178Y (TK+/TK-), Metabolic Activation: NONE, Method: SUSPENSION/PLATE). In addition, the mutagenic call was “active; positive. reevaluation of results: positive” (Test System: MOUSE LYMPHOMA, Strain/Indicator: L5178Y (TK+/TK-), Metabolic Activation: RAT, LIVER, S-9, AROCLOR 1254, Method: SUSPENSION/PLATE) and “active; positive” (Test System: UDS HUMAN FIBROBLASTS, Strain/Indicator: THY INCORP (NON-S-PHASE), Metabolic Activation: MOUSE, LIVER, S-9, Method: AUTORADIOGRAPHY).
`Clc1ccc(CN2[C@@H]3c4ccccc4-c4ccccc4[C@@H]32)cc1` (some centres not stated): the mutagenic call under setting [3] was “active; positive”.
As for `O[C@H]1c2cccc3ccc4cccc(c4c23)[C@@H]1O`, the mutagenic call under setting [1] is “inactive; negative”; the mutagenic call (Test System: AMES SALMONELLA TYPHIMURIUM, Strain/Indicator: TA98, Metabolic Activation: RAT, LIVER, S-9, AROCLOR 1254, Method: PREINCUBATION) is “inactive; negative”; the mutagenic call under setting [2] is “inactive; negative”; the mutagenic call (Test System: AMES SALMONELLA TYPHIMURIUM, Strain/Indicator: TA100, Metabolic Activation: RAT, LIVER, S-9, AROCLOR 1254, Method: PREINCUBATION) was “inactive; negative”.
With `Nc1cc2[nH]c3ccccc3c2cc1[N+](=O)[O-]`, the mutagenic call (Test System: AMES SALMONELLA TYPHIMURIUM, Strain/Indicator: TA98, Metabolic Activation: NONE, Method: STANDARD PLATE) was “inactive; negative”; the mutagenic call (Test System: AMES SALMONELLA TYPHIMURIUM, Strain/Indicator: TA98, Metabolic Activation: RAT, LIVER, S-9, PHENOBARBITAL, Method: STANDARD PLATE) is “active; positive”; the mutagenic call under setting [3] is “inactive; negative”; the mutagenic call (Test System: AMES SALMONELLA TYPHIMURIUM, Strain/Indicator: TA100, Metabolic Activation: RAT, LIVER, S-9, PHENOBARBITAL, Method: STANDARD PLATE) is “active; positive”; the mutagenic call (Test System: AMES SALMONELLA TYPHIMURIUM, Strain/Indicator: TA1537, Metabolic Activation: NONE, Method: STANDARD PLATE) was “inactive; negative”; the mutagenic call (Test System: AMES SALMONELLA TYPHIMURIUM, Strain/Indicator: TA1537, Metabolic Activation: RAT, LIVER, S-9, PHENOBARBITAL, Method: STANDARD PLATE) is “active; positive”. In addition, the mutagenic call by setting is: (Test System: AMES SALMONELLA TYPHIMURIUM, Strain/Indicator: TA1538, Metabolic Activation: NONE, Method: STANDARD PLATE) “inactive; negative”; (Test System: AMES SALMONELLA TYPHIMURIUM, Strain/Indicator: TA1538, Metabolic Activation: RAT, LIVER, S-9, PHENOBARBITAL, Method: STANDARD PLATE) “active; positive”; (Test System: AMES SALMONELLA TYPHIMURIUM, Strain/Indicator: TA1977, Metabolic Activation: NONE, Method: STANDARD PLATE) “inactive; negative”; (Test System: AMES SALMONELLA TYPHIMURIUM, Strain/Indicator: TA1977, Metabolic Activation: RAT, LIVER, S-9, PHENOBARBITAL, Method: STANDARD PLATE) “inactive; negative”.
Consider `O=[N+]([O-])c1cc(CCl)cc([N+](=O)[O-])c1`, for which the mutagenic call is, setting by setting: under setting [1], “active; positive”; (Test System: AMES SALMONELLA TYPHIMURIUM, Strain/Indicator: TA98, Metabolic Activation: RAT, LIVER, S-9, KANECHLOR 500, Method: PREINCUBATION) “active; positive”; under setting [2], “active; positive”; (Test System: AMES SALMONELLA TYPHIMURIUM, Strain/Indicator: TA100, Metabolic Activation: RAT, LIVER, S-9, KANECHLOR 500, Method: PREINCUBATION) “active; positive”.
Regarding `FC(F)(Cl)Br`, the mutagenic call by setting is: (Test System: AMES SALMONELLA TYPHIMURIUM, Strain/Indicator: TA98, Metabolic Activation: NONE, Method: DESICCATOR) “inactive; negative”; (Test System: AMES SALMONELLA TYPHIMURIUM, Strain/Indicator: TA100, Metabolic Activation: NONE, Method: DESICCATOR) “inactive; negative”; (Test System: AMES SALMONELLA TYPHIMURIUM, Strain/Indicator: TA100, Metabolic Activation: RAT, LIVER, S-9, AROCLOR 1254, Method: DESICCATOR) “inactive; negative”; (Test System: AMES SALMONELLA TYPHIMURIUM, Strain/Indicator: TA1535, Metabolic Activation: NONE, Method: DESICCATOR) “active; positive”; (Test System: AMES SALMONELLA TYPHIMURIUM, Strain/Indicator: TA1535, Metabolic Activation: RAT, LIVER, S-9, AROCLOR 1254, Method: DESICCATOR) “active; positive”; (Test System: AMES SALMONELLA TYPHIMURIUM, Strain/Indicator: TA1538, Metabolic Activation: RAT, LIVER, S-9, AROCLOR 1254, Method: DESICCATOR) “inactive; negative”. The mutagenic call runs as follows: (Test System: MOUSE LYMPHOMA, Strain/Indicator: L5178Y (TK+/TK-), Metabolic Activation: NONE, Method: DESICCATOR) “inactive; negative”; (Test System: MOUSE LYMPHOMA, Strain/Indicator: L5178Y (TK+/TK-), Metabolic Activation: S-9, Method: DESICCATOR) “inactive; negative”.
